Experimental data reported in patent publication US10668039B2, “Methods for treatment of adenoid cystic carcinoma” (THE CHILDREN'S MEDICAL CENTER CORPORATION, priority 2016, dated 2020).

Experiments:
[1] = system: ACC; details: Phase II trials in ACC; cited from earlier work
[2] = system: c-myb:GFP; assay: c-myb:GFP zebrafish blastomere embryo culture chemical screen; type: cell-based; details: approximately 30 μM, 2 days
Procedure: The inventors have developed an embryo culture system in which embryos bearing a c-myb:GFP transgenic reporter were dissociated during sphere stage at 4 hours post fertilization (hpf), and cultured in gelatin-coated 384 well plates with chemicals for 2 days until imaging for fluorescent reporter activity (FIG. 1). This fluorescent transgene is expressed in a similar pattern to the endogenous gene. […] This transgene responds to inducers of hematopoiesis, as myb is a marker of hematopoietic stem cells (HSCs).
The image analysis software (ImageJ and MatLab) was used to identify hits that downregulate c-myb:GFP zebrafish embryo cultures by a z-score less than […] and more than 70% downregulation. Hits were assessed by eye and scored for morphology. Toxic compounds that caused poor embryoid body (EB) formation were assessed a 4.
Zebrafish cell culture: Zebrafish embryo cultures were adapted from Xu (2013). Dissociated blastomere cells were grown in medium composed of 85% LDF medium, 5% heat inactivated FBS, and 10% zebrafish day 1 embryo extract. LDF medium contains 50% Leibowitz's L-15 (Invitrogen), 20% DMEM (Invitrogen), and 30% DMEM/F-12 (Invitrogen), supplemented with 0.018% sodium bicarbonate, 15 mM HEPES (Invitrogen), 1% L-Glutamine (Invitrogen), 10 nM sodium selenite (Sigma-Aldrich), 1% N2 (Invitrogen), 2% B27 (Invitrogen), 1% Penicillin-Streptomycin (Invitrogen), and 0.2% Primocin (InvivoGen).
Screening procedures: Two 384-well plates were coated with 0.1% gelatin for each chemical library plate. Males of the c-myb:GFP transgenic line were set up overnight with casper females and kept separated until morning when they were mixed for mating. Embryos were washed twice with E3 embryo water and treated with pronase to remove chorions. Dechorionated embryos were washed with E3 embryo water and collected into tubes containing media. Embryos were disassociated by shaking ˜10 times and were filtered through a 40 μm nylon mesh filter. Resulting single cells were diluted with medium and aliquoted 30 μl per well into the 384-well plates at approximately 2 embryo equivalents per well. Chemicals were dispensed immediately afterwards with an Agilent Bravo robot. Chemicals from the libraries were diluted 300 times with LDF medium and were aliquoted 10 μl per well for a final concentration of approximately 33 μM. […] Cells were cultured in a 28° C. incubator with 5% CO2. Two days later, cells were imaged by a Yokogawa Cell Voyager 7000 imager. Images were analyzed by ImageJ and MatLab and confirmed by eye. […]
Culture of dissociated blastomere cells: Stage-matched zebrafish blastomeres were dissociated at 4 hpf and grown in medium composed of 85% LDF medium, 5% FBS, and 10% embryo extract. LDF medium contains 50% Leibowitz's L-15 (Invitrogen), 20% DMEM (Invitrogen), and 30% DMEM/F-12 (Invitrogen), supplemented with 2% B27 (Gibco), 15 mM HEPES (Gibco), 1% L-glutamine (Gibco), 1% N2 (Gibco), 10 nM sodium selenite (Sigma), 100 ug/mL piperacillin (Sigma), 10 ug/mL ciprofloxacin (GenHunter), and 0.018% sodium bicarbonate (Gibco). Embryo extract was made by homogenizing 24 hpf wildtype AB embryos in HBSS (Gibco).

[3] = system: c-myb; assay: U937 time course qPCR of c-myb; type: cell-based, human; details: 1 μM; 6, 24 and 48 hours
Procedure: Cell culture: U937 cells were grown in RPMI 1640 (Life Technologies), 10% heat inactivated FBS, and 1% Penicillin-Streptomycin (Invitrogen). CellTiter-Glo Luminescent Cell Viability Assay (Promega) was performed as per manufacturer's instructions. Cell viability was assessed at day 2.
(§1) Quantitative PCR: Total RNA from cells was extracted using Qiagen RNeasy Mini Kit, and random primed cDNA was generated (Invitrogen, SuperScript III First-Strand Synthesis System). The SsoFast EvaGreen (Biorad) method was used to quantify cDNAs of interest, which are represented as the fold change in transcript level. The amount of cDNA starting material for each sample was normalized in relation to species-specific β-actin expression for zebrafish samples, and both gapdh and β-actin expression for human samples. The primer sequences used were zebrafish myb: forward, 5′-[…]-3′ (SEQ ID No:1), reverse, 5′-[…]-3′ (SEQ ID No:2); zebrafish β-actin: forward, 5′-[…]-3′ (SEQ ID No:3), reverse, 5′-[…]-3′ (SEQ ID No:4); human myb: forward, 5′-[…]-3′ (SEQ ID No:5), reverse, 5′-[…]-3′ (SEQ ID No:6); human gapdh: forward, 5′-[…]-3′ (SEQ ID No:7), reverse, 5′-[…]-3′ (SEQ ID No:8); human β-actin: forward, 5′-[…]-3′ (SEQ ID No:9), reverse, 5′-[…]-3′ (SEQ ID No:10).
U937 time course quantitative PCR analysis: U937 cells were plated with 1 μM retinoic acid agonists for the duration indicated. Cells were then collected and RNA was isolated using the RNeasy Plus Mini Kit (Qiagen) as per the manufacturer's instructions. Further processing was done as described in the section above. Samples were normalized to β-actin gene. Human primers used (forward and reverse respectively): actin, 5′-[…]-3′ (SEQ ID No:9) and 5′-[…]-3′ (SEQ ID No:10); c-myb, 5′-[…]-3′ (SEQ ID No:5) and 5′-[…]-3′ (SEQ ID No:6).

[4] = system: c-myb; assay: qPCR of sorted c-myb:GFP zebrafish embryo cells; type: cell-based; details: sorted c-myb:GFP cells from 72 hpf embryos, 1 μM, 6 hours
Procedure: RA dose response experiments were plated similarly in LDF medium with the appropriate RA concentration. Sorted c-myb:GFP+ cells were collected from 72 hpf transgenic embryos that were homogenized: embryos were finely chopped and dissociated using Liberase (Roche), cell suspensions were filtered, and 58,000 GFP+ live cells were collected using a FACS Aria cell sorter (BD Biosciences). Cells were cultured for 6 hours in LDF medium, and then collected for qPCR.
as §1
Zebrafish quantitative PCR analysis: Stage-matched 72 hpf c-myb:GFP transgenic embryos were finely chopped and dissociated using Liberase (Roche). GFP+ cells were collected using a FACS Aria cell sorter (BD Biosciences). Sorted cells were resuspended in zebrafish blastomere media and plated with 1 μM retinoic acid agonists for 6 hours. Cells were then collected and RNA was isolated using the RNeasy Micro Plus Kit (Qiagen) as per the manufacturer's instructions. cDNA was synthesized using the SuperScript III Kit (Life Technologies). Quantitative PCR was performed in triplicate on a BioRad iQ5 real-time PCR machine using Ssofast EvaGreen Supermix (BioRad). Samples were normalized to β-actin gene. Zebrafish primers used (forward and reverse respectively): actin, 5′-[…]-3′ (SEQ ID No:3) and 5′-[…] -3′ (SEQ ID No:4); c-myb, 5′-[…]-3′ (SEQ ID No:1) and 5′-[…]-3′ (SEQ ID No:2); mpx, 5′-[…]-3′ (SEQ ID No:11) and 5′-[…]-3′ (SEQ ID No:12); GFP, 5′-[…]-3′ (SEQ ID No:13) and 5′-[…]-3′ (SEQ ID No:14).

[5] = Table 2, c-myb:GFP embryo cultures, average across two plates
[6] = Table 2, c-myb:GFP embryo cultures
[7] = Table 3, GFP signal in blastomere embryo culture screen

O=C(CCCCCCC(=O)Nc1ccccc1)NO [Vorinostat]
Objective Response Rate [1]: 3%

Cc1nsc(NC(=O)N2CCC(Sc3ccccc3C)CC2)n1 [4-[(2-methylphenyl)thio]-N-(3-methyl-1,2,4-thiadiazol-5-yl)piperidine-1-carboxamide]
Z-Score [2, 5]: −2.228

CCCCOCCOc1nc(-c2ccc(C(=O)O)c(F)c2)sc1C [AC 261066, 4-[4-(2-Butoxyethoxy-)-5-methyl-2-thiazolyl]-2-fluorobenzoic acid]
Fold Change [2, 6]: −0.7734 | Z-Score [2, 5]: −1.697 | Fold Change [2, 7]: −0.7734 | Z-Score [2, 7]: −1.697

CC1=C(/C=C/C(C)=C\C=C\C(C)=C\C(=O)O)C(C)(C)CCC1 [9-cis retinoic acid]
myb levels in U937 by qPCR [3]: significantly downregulate | endogenous myb levels by qPCR [4]: significantly downregulate | Fold Change [2, 6]: −0.9153 | Z-Score [2, 5]: −1.566 | Fold Change [2, 7]: −0.9153 | Z-Score [2, 7]: −1.566

O=c1c2ccccc2[nH]c(=S)n1CCN1CCC(=C(c2ccc(F)cc2)c2ccc(F)cc2)CC1 [Diacylglycerol Kinase Inhibitor II]
Z-Score [2, 5]: −1.493

CC1(C)CCC(C)(C)c2cc(C(=O)Nc3ccc(C(=O)O)cc3)ccc21 [AM-580, 4-[(5,6,7,8-Tetrahydro-5,5,8,8-tetramethyl-2-naphthalenyl)carboxamido]benzoic acid]
Fold Change [2, 6]: −0.9547 | Z-Score [2, 5]: −1.631 | Fold Change [2, 7]: −0.9547 | Z-Score [2, 7]: −1.631

CS(=O)(=O)CCNCc1ccc(-c2ccc3ncnc(Nc4ccc(OCc5cccc(F)c5)c(Cl)c4)c3c2)o1 [Lapatinib]
Objective Response Rate [1]: 0%

Cc1ccc(NC(=O)c2ccc(CN3CCN(C)CC3)cc2)cc1Nc1nccc(-c2cccnc2)n1 [Imatinib]
Objective Response Rate [1]: 0%

CNC(=O)c1cc(Oc2ccc(NC(=O)Nc3ccc(Cl)c(C(F)(F)F)c3)cc2)ccn1 [Sorafenib]
Objective Response Rate [1]: 11%

CC(C)C[C@H](NC(=O)[C@H](Cc1ccccc1)NC(=O)c1cnccn1)B(O)O [Bortezomib]
Objective Response Rate [1]: 0%

Cc1nsc(NC(=O)N2CCCC(Cc3ccc(F)cc3)C2)n1 (stereo not drawn) [3-(4-fluorobenzyl)-N-(3-methyl-1,2,4-thiadiazol-5-yl)piperidine-1-carboxamide]
Z-Score [2, 5]: −3.287

COc1ccc2c(c1)c(CC(=O)O)c(C)n2Cc1ccc(F)cc1 [1-(4-Fluorobenzyl)-5-methoxy-2-methylindole-3-acetic acid]
Z-Score [2, 5]: −1.726

Cc1c(C(C)Nc2ncnc3sccc23)cnn1C (stereo not drawn) [N-[1-(1,5-dimethyl-1H-pyrazol-4-yl)ethyl]thieno[2,3-d]pyrimidin-4-amine]
Z-Score [2, 5]: −2.83

COc1cc2ncnc(Nc3ccc(F)c(Cl)c3)c2cc1OCCCN1CCOCC1 [Gefitinib]
Objective Response Rate [1]: 0%

O=C(c1ccc(OCCN2CCCCC2)cc1)c1c(-c2ccc(O)cc2)sc2cc(O)ccc12 [Evista]
Z-Score [2, 5]: −3.318

C=C(C)[C@H]1CC=C(C(=O)O)CC1 [(−)-Perillic acid]
Fold Change [2, 6]: −0.7327 | Z-Score [2, 5]: −1.848

CC1(C)O[C@@H]2C[C@H]3[C@@H]4C[C@H](F)C5=CC(=O)C=C[C@]5(C)[C@H]4[C@@H](O)C[C@]3(C)[C@]2(C(=O)CO)O1 [FluniSOLIDe]
Z-Score [2, 5]: −3.085

C/C(=C\c1ccc(C(=O)O)cc1)c1ccc2c(c1)C(C)(C)CCC2(C)C [TTNPB, 4-[(E)-2-(5,6,7,8-Tetrahydro-5,5,8,8-tetramethyl-2-naphthalenyl)-1-propenyl]benzoic acid]
Z-Score [2, 5]: −1.6339 | Z-Score [2, 7]: −1.634

Cc1nn(C)cc1-c1ccnc(NC(CC(C)(C)C)c2cccnc2)n1 (stereo not drawn) [4-(1,3-dimethyl-1H-pyrazol-4-yl)-N-(3,3-dimethyl-1-pyridin-3-ylbutyl)pyrimidin-2-amine]
Z-Score [2, 5]: −2.29

O=C(O[C@H]1[C@H](Oc2ccccc2COC(=O)C2(O)C=CCCC2=O)O[C@H](CO)[C@@H](O)[C@@H]1O)c1ccccc1 (stereo partly drawn) [TREMULACIN]
Z-Score [2, 5]: −3.9299

CO[C@H]1C[C@@H]2CC[C@@H](C)[C@@](O)(O2)C(=O)C(=O)N2CCCC[C@H]2C(=O)O[C@H]([C@H](C)C[C@@H]2CC[C@@H](OCCO)[C@H](OC)C2)CC(=O)[C@H](C)/C=C(\C)[C@@H](O)[C@@H](OC)C(=O)[C@H](C)C[C@H](C)/C=C/C=C/C=C/1C [Everolimus]
Objective Response Rate [1]: 0%

COc1ccc(N2CCN(C(=O)Nc3nc(C)ns3)CC2(C)C)cc1 [4-(4-methoxyphenyl)-3,3-dimethyl-N-(3-methyl-1,2,4-thiadiazol-5-yl)piperazine-1-carboxamide]
Z-Score [2, 5]: −2.357

Nc1nc2ccc(OC(F)(F)F)cc2s1 [Riluzole]
Z-Score [2, 5]: −6.521

O=C(Cc1cccc(O)c1)NCc1cc2cc(Cl)ccc2[nH]1 [N-[(5-chloro-1H-indol-2-yl)methyl]-2-(3-hydroxyphenyl)acetamide]
Z-Score [2, 5]: −3.297

Cl.FC(F)(F)c1cc(CO[C@H]2CCCN[C@H]2c2ccccc2)cc(C(F)(F)F)c1 [L-733,060 hydrochloride]
Fold Change [2, 6]: −0.752 | Z-Score [2, 5]: −1.715
